From ChEMBL document CHEMBL4052780, “Novel 1,2-dihydroquinazolin-2-ones: Design, synthesis, and biological evaluation against Trypanosoma brucei” (Bioorg Med Chem Lett, 2017) come the findings set out here.

Values after ≈ are worked out from the molar mass of the structure shown. A value given as a limit tells only on which side of the number the result lay.

Series [1] deals with Trypanosoma brucei brucei. Nature of the series: Antitrypanosomal activity against bloodstream form of Trypanosoma brucei brucei Lister 427 after 72 hrs by resazurin based fluorescence assay. It is filed as functional. Conditions: Lister 427, 72 h.
A short description of series [2]: Cytotoxicity against human MRC5 SV2 cells after 48 hrs by resazurin based fluorescence assay. Conditions: MRC-5 SV2, 48 h. It is filed as cell-based. (In general: Alamar Blue is a resazurin reagent that responds to reducing activity.)
Series [3] in a line: Kinetic aqueous solubility of the compound by CLND method. It is filed as physicochemical. Conditions: read-out: Kinetic_solubility.
A further series deals with Trypanosoma cruzi. Nature of the series: Antitrypanosomal activity against Trypanosoma cruzi Tulahuen C4 amastigotes infected in rat L6 cells after 96 hrs by beta-galactosidase reporter gene assay. It is filed as functional, cell-based. The following applies: Tulahuen C4, L6, 96 h. In general terms: In a reporter assay the amount or activity of a reporter protein is the signal.

The subject of a further series is L6. Briefly: Cytotoxicity against rat L6 cells assessed as reduction in cell viability after 72 hrs by resazurin based fluorescence assay. Conditions: L6, 72 h.
The next series deals with Leishmania donovani. Briefly: Antileishmanial activity against intracellular […] stage of Leishmania donovani MHOM/ET/67/HU3 infected in human THP1 cells measured after 72 hrs by luciferase reporter gene assay. It is filed as functional, cell-based. The following applies: MHOM/ET/67/HU3, THP-1, 72 h.
The subject of another series is THP-1. Briefly: Cytotoxicity against human THP1 cells assessed as reduction in cell viability after 72 hrs by MTT assay. It is filed as cell-based. The following applies: THP-1, 72 h. Background: Tetrazolium dyes change colour on reduction, which living cells bring about.

On to `Cc1ccc2[nH]c(=O)nc(-c3ccccc3)c2c1`, for which the EC50 (as a rule, the concentration at which the effect is half-maximal) was above 40 µM in series [1]; above 50 µM in series [2]; above 20 µM in the series with Trypanosoma cruzi; above 50 µM in the series on L6; above 5 µM in the series with Leishmania donovani; above 50 µM in the series on THP-1. In addition, in series [3], the solubility kinetic was 80 µM (≈ 18.9 µg/mL).

Consider `O=c1nc(-c2ccccc2)c2ccc(-c3ccncc3)cc2[nH]1`, for which the 50% effective concentration (EC50) is 14.2 µM in series [1]; above 50 µM in series [2]; above 20 µM in the series with Trypanosoma cruzi; above 5 µM with Leishmania donovani; above 50 µM with THP-1.

Take `O=c1nc(-c2ccccc2)c2cc(-c3cccc(N4CCOCC4)c3)ccc2[nH]1`: the half-maximal effective concentration (EC50) in series [1] was 5.17 µM; in series [2] it was above 50 µM; in the series on Trypanosoma cruzi, 15.1 µM; in the series with L6, above 50 µM; in the series on Leishmania donovani it was above 5 µM; with THP-1 it was above 50 µM.

Regarding `O=c1nc(-c2ccccc2)c2cc(-c3cn[nH]c3)ccc2[nH]1`, the 50% effective concentration (EC50) in series [1] was 1.44 µM; in series [2], 22 µM; in the series on Trypanosoma cruzi, 8.33 µM; in the series on L6 it was above 50 µM; with Leishmania donovani it was above 5 µM; in the series on THP-1 it was above 50 µM.

As for `O=c1nc(-c2ccccc2)c2cc(-c3cnc4ccccc4c3)ccc2[nH]1`, the 50% effective concentration (EC50) in series [1] was 1.73 µM; in series [2], above 50 µM; in the series with Trypanosoma cruzi, 7.19 µM; in the series with L6, above 16 µM; with Leishmania donovani it was above 5 µM; with THP-1 it was above 50 µM.

Consider `O=c1nc(-c2ccccc2)c2ccc(-c3cncnc3)cc2[nH]1`, for which the EC50 in series [1] was above 40 µM; in series [2], above 50 µM; in the series with Trypanosoma cruzi it was above 20 µM; in the series on Leishmania donovani it was above 5 µM; in the series with THP-1, above 50 µM.

With `O=c1nc(-c2ccccc2)c2cc(-c3ccccc3F)ccc2[nH]1`, the EC50 in series [1] is 3.71 µM; in series [2], above 50 µM; with Trypanosoma cruzi, 8.63 µM; in the series with L6, 55.8 µM; in the series with Leishmania donovani it was above 5 µM; in the series with THP-1, 50 µM.

With `Cc1ccncc1-c1ccc2[nH]c(=O)nc(-c3ccccc3)c2c1`, the EC50 is 5.07 µM in series [1]; above 50 µM in series [2]; 8.94 µM in the series on Trypanosoma cruzi; above 50 µM with L6; above 5 µM in the series on Leishmania donovani; above 50 µM with THP-1.

Turning to `N#Cc1ccc(-c2cccc3[nH]c(=O)nc(-c4ccccc4)c23)cc1`, the concentration giving a half-maximal response (EC50) in series [1] was above 40 µM; in series [2], above 50 µM; in the series with Trypanosoma cruzi, above 20 µM; in the series on L6, above 50 µM; in the series with Leishmania donovani it was above 5 µM; in the series with THP-1, above 50 µM.

For `N#Cc1ccc(-c2ccc3[nH]c(=O)nc(-c4ccccc4)c3c2)cc1`, the EC50 in series [1] is 1.71 µM; in series [2] it was above 50 µM; in the series with Trypanosoma cruzi it was 17.4 µM; in the series with L6, above 50 µM; in the series on Leishmania donovani, above 5 µM; with THP-1, above 50 µM.

As to `Cc1cc(-c2ccc3[nH]c(=O)nc(-c4ccccc4)c3c2)ccn1`, the EC50 in series [1] was 5.32 µM; in series [2], above 50 µM; in the series with Trypanosoma cruzi, 16.8 µM; with L6, above 50 µM; in the series with Leishmania donovani, above 5 µM; in the series with THP-1, above 50 µM.

On to `Cc1noc(C)c1-c1ccc2[nH]c(=O)nc(-c3ccccc3)c2c1`, for which the concentration giving a half-maximal response (EC50) in series [1] was 2.13 µM; in series [2], above 50 µM; in the series on Trypanosoma cruzi, 11.9 µM; in the series with L6, above 50 µM; with Leishmania donovani, above 5 µM; in the series with THP-1, above 50 µM.

In the case of `O=c1nc(-c2ccccc2)c2ccc(-c3ccc(F)cc3)cc2[nH]1`, the concentration giving a half-maximal response (EC50) in series [1] was 4.65 µM; in series [2] it was above 50 µM; with Trypanosoma cruzi, above 20 µM; in the series on Leishmania donovani, above 5 µM; in the series on THP-1, above 50 µM.

With `CN(C)c1ccc(-c2ccc3[nH]c(=O)nc(-c4ccccc4)c3c2)cn1`, the EC50 in series [1] was 2.04 µM; in series [2], above 50 µM; in the series with Trypanosoma cruzi, 14 µM; with L6, 50 µM; with Leishmania donovani it was above 5 µM; in the series with THP-1, above 50 µM.

For the compound `O=c1nc(-c2ccccc2)c2cc(-c3ccc(N4CCOCC4)cc3)ccc2[nH]1`, the 50% effective concentration (EC50) in series [1] is 2.17 µM; in series [2], 23.8 µM; in the series with Trypanosoma cruzi it was 8.3 µM; in the series on L6, 22.7 µM; in the series with Leishmania donovani it was above 5 µM; in the series with THP-1, above 50 µM.

Turning to `O=c1nc(-c2ccccc2)c2cc(-c3cccc(F)c3)ccc2[nH]1`, the EC50 in series [1] was 4.29 µM; in series [2] it was above 50 µM; in the series with Trypanosoma cruzi, 9.48 µM; with L6 it was 23 µM; in the series on Leishmania donovani, above 5 µM; in the series on THP-1, above 50 µM.

Take `Cc1ccc(-c2ccc3[nH]c(=O)nc(-c4ccccc4)c3c2)cn1`: the 50% effective concentration (EC50) in series [1] was 5.29 µM; in series [2], above 50 µM; with Trypanosoma cruzi it was 14.8 µM; with L6 it was above 50 µM; in the series on Leishmania donovani it was above 5 µM; in the series on THP-1 it was above 50 µM.

For the compound `Cn1cc(-c2ccc3[nH]c(=O)nc(-c4ccccc4)c3c2)cn1`, the EC50 in series [1] was 5.6 µM; in series [2], above 50 µM; in the series on Trypanosoma cruzi, above 20 µM; in the series on L6, above 50 µM; in the series on Leishmania donovani, above 5 µM; in the series on THP-1, above 50 µM.

As to `O=c1nc(-c2ccccc2)c2cc(N3CCNCC3)ccc2[nH]1`, the EC50 in series [1] is above 20 µM; in series [2] it was above 25 µM; with Trypanosoma cruzi, above 10 µM; in the series with L6 it was above 25 µM; in the series on Leishmania donovani it was above 2.5 µM; in the series with THP-1 it was above 25 µM. Also, in series [3], the solubility kinetic was above 1000 µM.

Consider `O=c1nc(-c2ccccc2)c2ccc(-c3cccc(N4CCOCC4)c3)cc2[nH]1`, for which the EC50 in series [1] is 4.87 µM; in series [2] it was above 50 µM; in the series with Trypanosoma cruzi, above 20 µM; in the series with L6 it was 4.53 µM; with Leishmania donovani, above 5 µM; with THP-1 it was above 50 µM.

As to `COc1ccccc1-c1nc(=O)[nH]c2ccc(-c3cc[nH]n3)cc12`, the EC50 in series [1] is 29 µM; in series [2] it was above 50 µM; with Trypanosoma cruzi it was 20 µM; in the series with L6, above 50 µM; with Leishmania donovani, above 5 µM; in the series with THP-1 it was above 50 µM.

With `O=c1nc(-c2ccccc2)c2cc(-c3ccccc3)ccc2[nH]1`, the EC50 in series [1] is 4.88 µM; in series [2], above 50 µM; in the series on Trypanosoma cruzi, above 20 µM; in the series on L6 it was above 50 µM; in the series with Leishmania donovani it was above 5 µM; in the series with THP-1, above 50 µM.

On to `Cc1cncc(-c2ccc3[nH]c(=O)nc(-c4ccccc4)c3c2)c1`, for which the 50% effective concentration (EC50) in series [1] is 5.24 µM; in series [2], above 50 µM; in the series on Trypanosoma cruzi it was 9.56 µM; in the series with L6, above 50 µM; with Leishmania donovani, above 5 µM; in the series on THP-1 it was above 50 µM.

`O=c1nc(-c2ccccc2)c2cc(-c3ccc(N4CCCC4)nc3)ccc2[nH]1`: the EC50 in series [1] was 1.77 µM; in series [2], above 50 µM; in the series on Trypanosoma cruzi, 6.29 µM; with L6 it was above 50 µM; in the series with Leishmania donovani it was above 5 µM; with THP-1, above 50 µM.

For the compound `O=c1nc(-c2ccccc2)c2ccc(-c3cccnc3)cc2[nH]1`, the EC50 in series [1] is above 40 µM; in series [2], above 50 µM; in the series with Trypanosoma cruzi, above 20 µM; in the series with L6, 7.73 µM; with Leishmania donovani, above 5 µM; in the series with THP-1, above 50 µM.

For `CNC(=O)c1cccc(-c2ccc3[nH]c(=O)nc(-c4ccccc4)c3c2)c1`, the 50% effective concentration (EC50) was 5.7 µM in series [1]; above 50 µM in series [2]; above 20 µM in the series with Trypanosoma cruzi; above 50 µM with L6; above 5 µM in the series with Leishmania donovani; above 50 µM in the series with THP-1.

Regarding `O=c1nc(-c2ccccc2)c2cc(-c3cncnc3)ccc2[nH]1`, the half-maximal effective concentration (EC50) in series [1] was 10 µM; in series [2], above 50 µM; with Trypanosoma cruzi, above 20 µM; with L6, above 50 µM; in the series on Leishmania donovani, above 5 µM; with THP-1 it was above 50 µM.

Consider `Cn1ccc(-c2cccc3[nH]c(=O)nc(-c4ccccc4)c23)n1`, for which the EC50 in series [1] is above 40 µM; in series [2], above 50 µM; in the series with Trypanosoma cruzi, above 20 µM; in the series on L6 it was above 50 µM; in the series with Leishmania donovani, above 5 µM; in the series with THP-1, above 50 µM.

`O=c1nc(-c2ccccc2)c2cc(-c3ccc(C(F)(F)F)nc3)ccc2[nH]1`: the 50% effective concentration (EC50) is 5.21 µM in series [1]; above 50 µM in series [2]; 18.4 µM in the series with Trypanosoma cruzi; above 50 µM with L6; above 5 µM with Leishmania donovani; above 50 µM with THP-1.

For the compound `Cn1nccc1-c1ccc2[nH]c(=O)nc(-c3ccccc3)c2c1`, the EC50 in series [1] was 5.96 µM; in series [2], above 50 µM; with Trypanosoma cruzi, 17.4 µM; with L6, above 50 µM; in the series with Leishmania donovani, above 5 µM; with THP-1, above 50 µM.

Turning to `CN1CCN(c2ccc3[nH]c(=O)nc(-c4ccccc4)c3c2)CC1`, the EC50 was above 40 µM in series [1]; above 50 µM in series [2]; above 20 µM in the series on Trypanosoma cruzi; above 50 µM in the series with L6; above 5 µM in the series on Leishmania donovani; above 50 µM with THP-1. For the same compound, the solubility kinetic in series [3] is above 1000 µM.

Consider `O=c1nc(-c2ccccc2)c2cc(-c3ccc(F)cc3)ccc2[nH]1`, for which the EC50 in series [1] was 3.88 µM; in series [2], above 50 µM; with Trypanosoma cruzi it was 8.73 µM; in the series on L6 it was 50 µM; in the series on Leishmania donovani, above 5 µM; in the series with THP-1, above 50 µM.

`O=c1nc(-c2ccccc2)c2cc(-c3cccnc3)ccc2[nH]1`: the half-maximal effective concentration (EC50) in series [1] was 5.35 µM; in series [2], above 50 µM; in the series on Trypanosoma cruzi, 15.8 µM; in the series with L6 it was above 50 µM; in the series on Leishmania donovani, above 5 µM; in the series with THP-1, above 50 µM.
